From US20050287232A1, “Skin immune function controlling agents” (priority 1999, published 2005)
Several values for one entry are separate records, joined by “and”; a condition that tells them apart may be missing. Equal entries are not always repeated. Where two headings read alike, the source gives them in different places.

Assays:
[1] = tested on: Langerhans' cells in the epidermis; assay: Staining of Langerhans' cells after stress imposition with perfume inhalation; type: in vivo, mice; details: DMMB at the time of stress imposition, FIG. 5
Protocol: (§1) Epidermal Langerhans' cells were stained according to the well-known method. In brief, an ear of a mouse was incubated in a 3.8% aqueous solution of ammonium thioisocyanate at 37° C. for 20 minutes to separate the epidermis from the corium. The epidermal sheet was fixed with acetone and incubated in the culture supernatant of mouse hybridoma M5/114.15.2 (American Tissue Type Collection, Rockville, Md., USA) so as to cause the secretion of anti-I-A IgG. Then, the anti-I-A IgG was combined with fluorescein isothiocyanate (FITC) (Sigma, USA)-labeled anti-mouse IgG antibody. Cells positive for the I-A antigen were observed under a confocal laser scanning microscope (MRC600; Bio Rad, USA) and analyzed. Samples were collected from each group of five mice. Three regions of each sample were analyzed by a blind test.
Female C57 BL/6 mice (aged 7-9 weeks) (purchased from Charles River Japan) were used. Each group of five animals were placed in a cage (225×335×140 mm) and kept in a chamber maintained at a temperature of 21-25° C. and a relative humidity of 40-70%. The inhalation of a perfume into the animals was carried out by placing a Petri dish having a diameter of 10 cm in the cage, putting therein a filter paper impregnated with the perfume, and covering the dish with wire netting. […]

[2] = tested on: contact hypersensitivity reaction; assay: CH reaction under restraint stress with perfume inhalation; type: in vivo, mice; details: for Swelling: DMMB inhalation, individual animals, right ear minus left ear thickness; for Average (swelling): DMMB, average of 5 values of Table III (1), given there in × 0.01 mm
Protocol: Female C57 BL/6 mice (aged 7-9 weeks) (purchased from Charles River Japan) were used. Each group of five animals were placed in a cage (225×335×140 mm) and kept in a chamber maintained at a temperature of 21-25° C. and a relative humidity of 40-70%. The inhalation of a perfume into the animals was carried out by placing a Petri dish having a diameter of 10 cm in the cage, putting therein a filter paper impregnated with the perfume, and covering the dish with wire netting. (A filter paper impregnated with no perfume was used for a control group.) These animals were laid in a prone position and wrapped in a pliable fine-meshed wire net for 6 hours. This animal experiment gained the approval of the animal experimentation committee of our company following the National Research Council Guidelines.
Mice were sensitized by applying 2,4,6-trinitrochlorobenzene (TNCB) (10 μl of a 3% acetone solution) to the inner and outer surfaces of the left ear of each mouse. After 5 days, a CH reaction was provoked by applying TNCB (5 μl of a 1% acetone solution) to the inner and outer surfaces of the right ear of each mouse. After 24 hours, the swelling was evaluated by measuring the thicknesses of both ears with a micrometer (manufactured by Mitsutoyo) and subtracting the thickness of the left ear from that of the right ear. The exposure of the animals to a perfume was continued over a period of time extending from 24 hours before provocation to the measurement of the swelling. The restraint stress was imposed 24 hours before provocation and repeated immediately after provocation. This experiment was carried out by using the animals in groups of five and using 1,3-dimethoxy-5-methylbenzene (DMMB; purchased from Takasago International Inc.) as the perfume.
The values given in Table III, (1) are values obtained by subtracting the measured thickness of the left ear of each test animal from that of the right ear thereof.

[3] = tested on: contact hypersensitivity reaction; assay: Contact hypersensitivity (CH) reaction induced and provoked with TNCB; perfume inhalation or topical application; type: in vivo, mice
Protocol: Female C57 BL/6 mice (aged 7-9 weeks) were used. Each group of five animals were placed in a cage (225×335×140 mm) and kept in a chamber maintained at a temperature of 21-25° C. and a relative humidity of 40-70%. The inhalation of a perfume into the animals was carried out by placing a Petri dish having a diameter of 10 cm in the cage, putting therein a filter paper impregnated with the perfume, and covering the dish with wire netting. (A filter paper impregnated with no perfume was used for a control group.) This animal experiment followed the National Research Council Guidelines. […] After 5 days (on experimental day 6), a contact hypersensitivity reaction was provoked by applying 5 μl of a 1% acetone solution of the aforesaid antigen to both sides of the right ear of each animal. The contact hypersensitivity (hereinafter referred to as CH) reaction was evaluated by measuring the thickness of the swollen left and right ears on day 7 with a micrometer and calculating the difference between the measured values. In order to examine the effect of perfume inhalation at the time of sensitization, a Petri dish containing a filter paper impregnated with the aforesaid perfume was placed in the cage over a period of time extending from day 0 to day 2. In order to examine the effect of perfume inhalation at the time of immunity provocation, the aforesaid Petri dish was placed in the cage over a period of time extending from day 5 to day 7. In order to examine the effect of the direct application of a perfume to the skin, 50 μl of 0.1% […] or diluent (50% corn oil in acetone) was applied to a region to be sensitized, and the aforesaid antigen was applied thereto after 6 hours. The long-term effect was tested by applying 50 μl of 1% perfume or diluent every day over a period of time extending from day 0 to day 2.

[4] = tested on: adenylate cyclase; details: olfactory cells of rats; Boekhoff et al. 1990; cited from earlier work
[5] = tested on: Epidermal Langerhans' cells; assay: Staining of epidermal Langerhans' cells (I-A antigen) after perfume exposure; type: in vivo, mouse
Protocol: as §1, with “Female C57 BL/6 mice (aged 7-9 weeks) were used. Each group of five animals were placed in a cage (225×335×140 mm) and kept in a chamber maintained at a temperature of 21-25° C. and a relative humidity of 40-70%. The inhalation of a perfume into the animals was carried out by placing a Petri dish having a diameter of 10 cm in the cage, putting therein a filter paper impregnated with the perfume, and covering the dish with wire netting. (A filter paper impregnated with no perfume was used for a control group.) This animal experiment followed the National Research Council Guidelines. Epidermal” for “Epidermal”

[6] = tested on: adenylate cyclase; details: olfactory cells of frogs; Sklar et al. 1986; cited from earlier work
[7] = Table I, after exposure to citralva, SD in parentheses
[8] = Table II, animals kept in the presence of citralva or lyral/lilial, SD in parentheses

## COc1cc(C)cc(OC)c1 [DMMB, 1,3-dimethoxy-5-methylbenzene]
[1]; compared with group without stress imposition
  number of Langerhans' cells: of the same order
[1]; compared with stress imposition alone
  number of Langerhans' cells: significantly increased
[2]; Restrained
  Swelling: 17 × 0.01 mm (2×) and 18 × 0.01 mm and 15 × 0.01 mm and 14 × 0.01 mm
  Average (swelling): 16.2
[2]; Unrestrained
  Swelling: 17 × 0.01 mm (2×) and 16 × 0.01 mm (2×) and 13 × 0.01 mm
  Average (swelling): 15.38
[2]; animal group having undergone DMMB inhalation, Table III, FIG. 4
  suppression of the skin immune reaction by stress: not observed

## CC(C)=CCCC(C)=CC#N [citralva, 3,7-dimethyl-2,6-octadienenitrile]
[3]; direct application to the skin, 50 μl of 0.1% or 1% perfume, FIG. 3
  influence of topical application on the CH reaction: neither citralva nor lyral/lilial exerts an influence on the CH reaction
[3]; inhalation, exposure for 2 days at the time of induction (day 0 to day 2), FIG. 1 B
  suppression of the induction of the CH reaction: about 20%
[3]; inhalation, exposure for 2 days at the time of provocation (day 5 to day 7), compared with controls, FIG. 1 A
  suppression of the provocation of the CH reaction: about 50%
[3]; perfume inhalation, FIG. 2
  effect on CH reaction, citralva compared with lyral/lilial: significantly more powerful than that of lyral/lilial
  effect on the provocation of a CH reaction: suppress the CH reaction
[4]
  adenylate cyclase activation: activates adenylate cyclase
[5]; [7]
  Area per cell: 172.0 (78.3) μm^2
  Intensity of I-A: 89.9 (2.9)
  Number of LC: 119.8 (15.0) per mm^2
  Number of dendrites: 4.40 (0.92)
[5]; Table II
  effect on Langerhans' cells, comparison of perfumes: more powerful effect than lyral/lilial
[5]; [8]
  Intensity of I-A: 84.9 (3.1)
  Number of dendrites: 2.56 (0.12)
[5]; after exposure to citralva, versus control (Table I)
  change in number of LC: significantly decreased
[5]; exposure to citralva, versus control
  change in area of each I-A-positive cell: significantly reduced
[6]
  adenylate cyclase activation: activates adenylate cyclase
